According to ChEMBL document CHEMBL3632570, “Structure-Guided Design of Novel l-Cysteine Derivatives as Potent KSP Inhibitors” (ACS Med Chem Lett, 2015):
Active and inactive are the calls of the source. No cut-off for these calls is given here.

Legend:
[1] = target: Centromere-associated protein E (Homo sapiens) (UniProt Q02224); assay: Inhibition of microtubule-stimulated CENP-E motor domain (1 to 339) (unknown origin) ATPase activity at 6.3 uM
Mus musculus [2] = assay: Toxicity in athymic nude BALB/cAJcL mouse xenografted with HCT116 cells assessed as body weight loss at 25 mg/kg, iv administered on days 1,3,5,8,10 and 12 relative to vehicle-treated control; format: organism-based, HCT-116; conditions: in vivo
Mus musculus [3] = assay: Toxicity in athymic nude BALB/cAJcL mouse xenografted with HCT116 cells assessed as mortality at 25 mg/kg, iv administered on days 1,3,5,8,10 and 12; format: organism-based, HCT-116; conditions: in vivo
[4] = target: T1, Kinesin-like protein KIF15 (Homo sapiens) (UniProt Q9NS87); assay: Inhibition of microtubule-stimulated KIF15 motor domain (1 to 372) (unknown origin) ATPase activity at 6.3 uM
T1 sequence (whole entry): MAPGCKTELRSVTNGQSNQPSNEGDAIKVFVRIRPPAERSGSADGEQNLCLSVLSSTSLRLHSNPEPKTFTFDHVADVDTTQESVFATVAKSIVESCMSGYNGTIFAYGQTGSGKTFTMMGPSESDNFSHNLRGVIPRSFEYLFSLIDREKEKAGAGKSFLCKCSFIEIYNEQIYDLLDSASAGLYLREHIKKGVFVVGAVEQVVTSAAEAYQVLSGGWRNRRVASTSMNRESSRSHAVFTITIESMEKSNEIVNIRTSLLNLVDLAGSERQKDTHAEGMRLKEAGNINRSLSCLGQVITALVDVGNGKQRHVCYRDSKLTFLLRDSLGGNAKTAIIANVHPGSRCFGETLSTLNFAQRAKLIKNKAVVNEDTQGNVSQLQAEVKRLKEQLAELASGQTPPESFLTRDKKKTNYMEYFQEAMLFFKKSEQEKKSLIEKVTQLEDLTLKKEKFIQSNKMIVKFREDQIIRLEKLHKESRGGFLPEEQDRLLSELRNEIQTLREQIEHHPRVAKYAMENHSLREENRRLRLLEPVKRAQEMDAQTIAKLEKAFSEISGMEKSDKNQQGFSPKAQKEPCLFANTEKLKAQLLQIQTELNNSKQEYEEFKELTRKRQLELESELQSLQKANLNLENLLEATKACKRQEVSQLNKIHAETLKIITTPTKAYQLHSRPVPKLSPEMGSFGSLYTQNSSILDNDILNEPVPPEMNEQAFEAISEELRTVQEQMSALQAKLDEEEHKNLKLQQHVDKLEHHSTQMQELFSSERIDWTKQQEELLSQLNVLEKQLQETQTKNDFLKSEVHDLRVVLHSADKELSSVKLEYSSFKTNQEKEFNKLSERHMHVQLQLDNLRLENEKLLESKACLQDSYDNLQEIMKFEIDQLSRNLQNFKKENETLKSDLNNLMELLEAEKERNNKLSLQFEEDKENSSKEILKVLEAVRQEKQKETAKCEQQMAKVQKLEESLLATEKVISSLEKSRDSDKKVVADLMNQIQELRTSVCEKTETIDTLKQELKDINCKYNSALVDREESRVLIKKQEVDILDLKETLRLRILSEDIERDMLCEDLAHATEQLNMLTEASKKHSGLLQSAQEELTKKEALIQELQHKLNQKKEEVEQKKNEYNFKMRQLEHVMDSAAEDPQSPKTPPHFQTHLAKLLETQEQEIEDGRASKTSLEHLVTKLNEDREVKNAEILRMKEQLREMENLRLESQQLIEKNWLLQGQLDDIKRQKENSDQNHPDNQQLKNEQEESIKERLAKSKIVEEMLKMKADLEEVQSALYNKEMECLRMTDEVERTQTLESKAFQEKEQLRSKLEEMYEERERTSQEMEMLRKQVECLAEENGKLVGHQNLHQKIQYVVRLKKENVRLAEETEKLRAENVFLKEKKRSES

[5] = target: T2, Kinesin-like protein KIF22 (Homo sapiens) (UniProt Q14807); assay: Inhibition of microtubule-stimulated Kid motor domain (1 to 336) (unknown origin) ATPase activity at 6.3 uM
T2 sequence (whole entry): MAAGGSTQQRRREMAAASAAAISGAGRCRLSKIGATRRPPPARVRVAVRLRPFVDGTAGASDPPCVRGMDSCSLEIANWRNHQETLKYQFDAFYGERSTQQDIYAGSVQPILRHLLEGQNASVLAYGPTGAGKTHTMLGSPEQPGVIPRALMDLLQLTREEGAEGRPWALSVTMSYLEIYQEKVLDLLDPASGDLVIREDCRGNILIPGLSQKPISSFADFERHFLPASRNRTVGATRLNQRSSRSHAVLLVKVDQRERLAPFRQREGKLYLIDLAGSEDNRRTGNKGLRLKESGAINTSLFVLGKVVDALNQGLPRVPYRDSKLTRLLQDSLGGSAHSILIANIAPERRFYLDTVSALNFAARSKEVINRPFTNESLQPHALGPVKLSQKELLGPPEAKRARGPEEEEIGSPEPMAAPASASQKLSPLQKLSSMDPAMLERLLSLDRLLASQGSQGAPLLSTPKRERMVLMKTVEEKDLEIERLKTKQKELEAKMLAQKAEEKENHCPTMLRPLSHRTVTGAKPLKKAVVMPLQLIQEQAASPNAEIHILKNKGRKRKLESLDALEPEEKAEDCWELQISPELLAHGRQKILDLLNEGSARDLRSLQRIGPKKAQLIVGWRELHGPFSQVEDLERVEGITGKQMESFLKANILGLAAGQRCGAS

Centromere-associated protein E (Homo sapiens), sequence (Q02224 whole entry, the tested form may be a part): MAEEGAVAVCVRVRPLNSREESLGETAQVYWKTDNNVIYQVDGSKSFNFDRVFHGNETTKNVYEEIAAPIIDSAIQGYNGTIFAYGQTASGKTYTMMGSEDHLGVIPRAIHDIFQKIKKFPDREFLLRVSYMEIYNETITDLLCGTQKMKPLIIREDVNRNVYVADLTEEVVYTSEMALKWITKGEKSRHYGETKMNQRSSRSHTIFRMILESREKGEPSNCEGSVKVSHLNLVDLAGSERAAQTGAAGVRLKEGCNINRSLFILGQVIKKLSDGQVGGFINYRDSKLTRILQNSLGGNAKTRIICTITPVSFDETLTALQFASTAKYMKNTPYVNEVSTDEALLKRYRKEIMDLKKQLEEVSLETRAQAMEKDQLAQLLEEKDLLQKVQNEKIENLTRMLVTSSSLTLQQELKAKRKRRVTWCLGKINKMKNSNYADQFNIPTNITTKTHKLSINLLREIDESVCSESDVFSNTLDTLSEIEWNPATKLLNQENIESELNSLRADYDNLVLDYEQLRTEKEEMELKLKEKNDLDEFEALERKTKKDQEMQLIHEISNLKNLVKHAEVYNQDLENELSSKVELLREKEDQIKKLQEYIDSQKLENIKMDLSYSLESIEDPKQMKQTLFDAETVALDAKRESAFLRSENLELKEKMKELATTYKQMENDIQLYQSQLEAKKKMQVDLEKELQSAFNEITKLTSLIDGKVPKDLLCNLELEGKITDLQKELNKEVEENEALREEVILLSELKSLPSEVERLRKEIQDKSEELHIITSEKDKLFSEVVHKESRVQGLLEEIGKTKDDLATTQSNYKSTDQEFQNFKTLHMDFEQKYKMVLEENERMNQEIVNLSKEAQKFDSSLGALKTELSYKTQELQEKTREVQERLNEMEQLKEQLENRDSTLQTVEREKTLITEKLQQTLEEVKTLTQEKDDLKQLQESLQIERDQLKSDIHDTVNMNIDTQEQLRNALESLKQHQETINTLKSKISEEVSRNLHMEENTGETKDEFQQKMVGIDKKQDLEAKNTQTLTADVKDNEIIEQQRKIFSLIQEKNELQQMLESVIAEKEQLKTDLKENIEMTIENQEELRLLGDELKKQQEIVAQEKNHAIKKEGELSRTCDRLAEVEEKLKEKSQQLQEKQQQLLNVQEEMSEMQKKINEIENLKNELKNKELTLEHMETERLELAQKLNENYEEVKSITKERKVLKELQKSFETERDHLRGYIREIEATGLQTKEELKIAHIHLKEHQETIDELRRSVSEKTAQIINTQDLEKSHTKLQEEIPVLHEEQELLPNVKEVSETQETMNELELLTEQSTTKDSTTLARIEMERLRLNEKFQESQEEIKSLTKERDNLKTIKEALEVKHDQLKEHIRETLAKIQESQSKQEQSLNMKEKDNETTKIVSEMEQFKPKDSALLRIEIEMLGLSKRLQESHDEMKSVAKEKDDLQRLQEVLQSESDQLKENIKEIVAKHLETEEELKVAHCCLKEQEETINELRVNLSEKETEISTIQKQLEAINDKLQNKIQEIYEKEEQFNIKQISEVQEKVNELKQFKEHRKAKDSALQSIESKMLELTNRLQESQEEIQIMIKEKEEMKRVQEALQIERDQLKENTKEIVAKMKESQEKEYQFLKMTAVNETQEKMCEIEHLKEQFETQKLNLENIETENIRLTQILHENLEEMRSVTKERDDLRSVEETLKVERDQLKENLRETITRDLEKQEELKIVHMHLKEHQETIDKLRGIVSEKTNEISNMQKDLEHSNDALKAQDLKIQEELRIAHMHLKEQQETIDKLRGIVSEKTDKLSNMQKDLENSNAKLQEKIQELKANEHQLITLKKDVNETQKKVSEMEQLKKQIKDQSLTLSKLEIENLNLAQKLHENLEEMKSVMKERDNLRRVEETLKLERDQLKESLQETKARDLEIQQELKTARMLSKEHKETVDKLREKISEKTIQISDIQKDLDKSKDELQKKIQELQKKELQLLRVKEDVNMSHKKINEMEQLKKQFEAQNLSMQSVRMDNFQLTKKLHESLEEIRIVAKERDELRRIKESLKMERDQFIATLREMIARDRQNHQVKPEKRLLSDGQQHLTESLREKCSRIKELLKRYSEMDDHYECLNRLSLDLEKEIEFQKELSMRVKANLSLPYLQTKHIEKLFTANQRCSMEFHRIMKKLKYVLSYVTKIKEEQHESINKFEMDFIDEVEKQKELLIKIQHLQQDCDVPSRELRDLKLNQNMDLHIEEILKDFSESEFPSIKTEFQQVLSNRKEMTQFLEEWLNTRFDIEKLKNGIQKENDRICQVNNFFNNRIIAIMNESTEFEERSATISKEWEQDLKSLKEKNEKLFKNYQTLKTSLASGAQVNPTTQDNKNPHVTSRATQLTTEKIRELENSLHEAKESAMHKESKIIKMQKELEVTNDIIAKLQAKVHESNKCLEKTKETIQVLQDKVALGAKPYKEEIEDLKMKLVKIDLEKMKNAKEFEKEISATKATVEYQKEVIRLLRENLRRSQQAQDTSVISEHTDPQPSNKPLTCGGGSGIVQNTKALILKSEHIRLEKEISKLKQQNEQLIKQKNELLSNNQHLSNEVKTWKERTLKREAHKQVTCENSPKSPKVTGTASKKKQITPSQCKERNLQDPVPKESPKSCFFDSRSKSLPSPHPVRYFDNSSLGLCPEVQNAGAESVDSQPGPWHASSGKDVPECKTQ

SMILES | inhibition [1] | Activity (Mus musculus [2]) | Activity (Mus musculus [3]) | inhibition [4] | inhibition [5]
COc1ccc(C2(SC[C@H](N)C(=O)O)c3ccccc3CCc3ccccc32)cc1 | inactive | Toxic | Non-toxic | inactive | inactive
N[C@@H](CSC1(c2ccc(C(F)(F)F)cc2)c2ccccc2CCc2ccccc21)C(=O)O | inactive | Toxic | Non-toxic | inactive | inactive
